According to patent US20170196296A1, “Amphoteric Metal Compound-Treated Substrate And Methods For Reduction Of Body Odor Using Treated Substrates” (priority 2016, published 2017):

Assay: solubility of copper hydroxide in ammonia solutions
Assay type: physicochemical
Source text: If the substrate is desirably a keratin-based material, then the substrate is selected from materials such as wool or hair (such as alpaca hair), and the AMH compound is preferably copper hydroxide (Cu[OH]2), which can be dissolved in an ammonia solution, resulting in an aqua ammonia solution of Schweizer's reagent, Cu[NH3]4[H2O]2][OH]2. […] Standard aqua ammonia (25%) saturates at only about 3% copper hydroxide W/W, and the concentrated ammonia solution is hazardous to breathe. However, the ammonia in the aqua ammonia+copper hydroxide solution can be mostly substituted with harmless ingredients. For example, a wool substrate can be soaked in an aqueous solution which is composed of only 3% ammonia, 4% W/W of ammonium chloride and 10% W/W of sodium carbonate will also dissolve 3% copper hydroxide, and after drying, the ammonium chloride and sodium carbonate can be rinsed away. A wool substrate thus treated will retain as much copper hydroxide as a substrate treated in solution of 3% copper hydroxide (saturated solution) in aqua ammonia (25% ammonia). Upon being soaked in either formula of 3% copper hydroxide solution, the surface of the wool immediately absorbs the copper hydroxide. Excess solution is squeezed out of the substrate material, and the substrate is allowed to dry. […]

- amount dissolved in aqueous ammonia/ammonium chloride/sodium carbonate solution (3% ammonia, 4% W/W ammonium chloride, 10% W/W sodium carbonate): 3%
- saturation concentration in standard aqua ammonia (aqua ammonia (25%)): about 3 % W/W
Compound: [OH][Cu][OH] [Cu(OH)2, copper(ii) hydroxide]
